Source: patent publication US4616081A, “Cephalosporin compounds” (Asahi Kasei Kogyo Kabushiki Kaisha, priority 1982, dated 1986)

Assays:
Staph. aureus ATCC 6538P = assay: MIC against Staph. aureus ATCC 6538P; assay type: cell-based; conditions: Bacterial count inoculated 10^6 cells/ml
Method: (§1) Nextly, antibacterial activity or minimum inhibitory concentration (MIC) was measured and the results are shown in Table 1 with respect to the following representative compounds according to the present invention. [drawing 19]
(§2) With respect to Compound Nos. 14 and 15, antibacterial activity or minimum inhibitory concentration (MIC) was measured and the results are shown in Table 2. [drawing 21]

Staph. aureus MS27 = assay: MIC against Staph. aureus MS27; assay type: cell-based; conditions: Bacterial count inoculated 10^6 cells/ml
Method: as §1, §2

Strept. pyogenes NY5 = assay: MIC against Strept. pyogenes NY5; assay type: cell-based; conditions: Bacterial count inoculated 10^6 cells/ml
Method: as §1, §2

Sarcina lutea ATCC 9341 = assay: MIC against Sarcina lutea ATCC 9341; assay type: cell-based; conditions: Bacterial count inoculated 10^6 cells/ml
Method: as §1, §2

E. coli NIHJ-JC2 = assay: MIC against E. coli NIHJ-JC2; assay type: cell-based; conditions: Bacterial count inoculated 10^6 cells/ml
Method: as §1, §2

E. coli W3630 = assay: MIC against E. coli W3630; assay type: cell-based; conditions: Bacterial count inoculated 10^6 cells/ml
Method: as §1, §2

E. coli W3630 PS3 = assay: MIC against E. coli W3630 PS3; assay type: cell-based; conditions: Bacterial count inoculated 10^6 cells/ml
Method: as §1, §2

[1] = tested on: Citrobact. freundii GN346; assay: MIC against Citrobact. freundii GN346; assay type: cell-based; conditions: Bacterial count inoculated 10^6 cells/ml
Method: as §1, §2

[2] = tested on: Klebs. pneumoniae ATCC 10031; assay: MIC against Klebs. pneumoniae ATCC 10031; assay type: cell-based; conditions: Bacterial count inoculated 10^6 cells/ml
Method: as §1, §2

[3] = tested on: Salm. enteritidis Gaertner; assay: MIC against Salm. enteritidis Gaertner; assay type: cell-based; conditions: Bacterial count inoculated 10^6 cells/ml
Method: as §1, §2

Shigella sonnei E33 = assay: MIC against Shigella sonnei E33; assay type: cell-based; conditions: Bacterial count inoculated 10^6 cells/ml
Method: as §1, §2

Proteus morganii 0239 = assay: MIC against Proteus morganii 0239; assay type: cell-based; conditions: Bacterial count inoculated 10^6 cells/ml
Method: as §1, §2

Proteus rettgeri ACR = assay: MIC against Proteus rettgeri ACR; assay type: cell-based; conditions: Bacterial count inoculated 10^6 cells/ml
Method: as §1, §2

[4] = tested on: Enterobact. aerogenes 0655; assay: MIC against Enterobact. aerogenes 0655; assay type: cell-based; conditions: Bacterial count inoculated 10^6 cells/ml
Method: as §1, §2

[5] = tested on: Enterobact. cloacae GN336; assay: MIC against Enterobact. cloacae GN336; assay type: cell-based; conditions: Bacterial count inoculated 10^6 cells/ml
Method: as §1, §2

Serratia marcescens = assay: MIC against Serratia marcescens; assay type: cell-based; conditions: Bacterial count inoculated 10^6 cells/ml
Method: as §1, §2

Ps. aeruginosa 0812 M2 = assay: MIC against Ps. aeruginosa 0812 M2; assay type: cell-based; conditions: Bacterial count inoculated 10^6 cells/ml
Method: as §1, §2

[6] = acute toxicity test using mice, intraperitoneal; conditions: mouse, in vivo, ip
Text: In addition to excellent antibacterial activity, the compounds of the present invention are low in toxicity. For example, in acute toxicity test using mice, the following results were obtained with Compound Nos. 2, 3, 7, 14, 15 and 23 which were intraperitoneally administered.

[7] = maximum blood concentration after oral administration in Wister rats (HPLC and Bioassay); assay type: in vivo; conditions: Wister rat, fasted, 30 mg/kg, solution of pH 7 in phosphate buffer
Method: Further in the compounds according to the present invention, intestinal absorption is improved by the introduction of amino acids at the 3-position thereof. For example, comparison of the maximum blood concentration of the Compound Nos. 2, 3, 7, 8, 14, 15 and 23 with that of Comparative Compound (b) establishes and affirms the effects, as is shown below. In the above test, the method for measurement of blood concentration was as follows. Rate: Wister rat weighing 170 to 220 g Dose: 30 mg/kg Wister rats were fasted from the previous night but freely accessible to water. Each of drugs was administered as a solution of pH 7 in a phosphate buffer, when orally administered. The blood concentration was measured in accordance with the High Performance Liquid Chromatography (HPLC) method and the Bioassay method by using E. coli as bacteria for test.

Bac. subtilis ATCC 6633 = assay: MIC against Bac. subtilis ATCC 6633; assay type: cell-based; conditions: Bacterial count inoculated 10^6 cells/ml
Method: as §2

| SMILES | Minimum Inhibitory Concentration (MIC) (Staph. aureus ATCC 6538P) | Minimum Inhibitory Concentration (MIC) (Staph. aureus MS27) | Minimum Inhibitory Concentration (MIC) (Strept. pyogenes NY5) | Minimum Inhibitory Concentration (MIC) (Sarcina lutea ATCC 9341) | Minimum Inhibitory Concentration (MIC) (E. coli NIHJ-JC2) | Minimum Inhibitory Concentration (MIC) (E. coli W3630) | Minimum Inhibitory Concentration (MIC) (E. coli W3630 PS3) | Minimum Inhibitory Concentration (MIC) [1] | Minimum Inhibitory Concentration (MIC) [2] | Minimum Inhibitory Concentration (MIC) [3] | Minimum Inhibitory Concentration (MIC) (Shigella sonnei E33) | Minimum Inhibitory Concentration (MIC) (Proteus morganii 0239) | Minimum Inhibitory Concentration (MIC) (Proteus rettgeri ACR) | Minimum Inhibitory Concentration (MIC) [4] | Minimum Inhibitory Concentration (MIC) [5] | Minimum Inhibitory Concentration (MIC) (Serratia marcescens) | Minimum Inhibitory Concentration (MIC) (Ps. aeruginosa 0812 M2) | LD50 [6] | Cmax [7] | Minimum Inhibitory Concentration (MIC) (Bac. subtilis ATCC 6633) |
| --- | --- | --- | --- | --- | --- | --- | --- | --- | --- | --- | --- | --- | --- | --- | --- | --- | --- | --- | --- | --- |
| CO/N=C(\C(=O)N[C@@H]1C(=O)N2C(C(=O)O)=C(CSc3nc(C(=O)O)c(N)n3C)CS[C@H]12)c1csc(N)n1 [Compound No. 2] | 3.1 | 6.3 | 0.1 | 0.2 | 0.2 | 0.2 | 0.2 | 25 | 0.1 | 0.2 | 0.4 | 0.1 | 0.2 | 1.6 | 0.8 | 0.2 | 6.3 | 9000 to 10000 mg/kg | 16000 ng/mL | – |
| CO/N=C(\C(=O)N[C@@H]1C(=O)N2C(C(=O)O)=C(C[n+]3ccc(CC(N)C(=O)O)cc3)CS[C@H]12)c1csc(N)n1 (stereo partly drawn) [Compound No. 14, 7β-[(Z)-2-(2-amino-4-thiazolyl)-2-(methoxyimino)acetamido]-3-[4-(2-amino-2-carboxy)ethyl-1-pyridiummethyl]-3-cephem-4-carboxylic acid] | 6.3 | 3.1 | 0.1 | 0.8 | 0.1 | ≤ 0.1 | ≤ 0.1 | 12.5 | ≤ 0.1 | ≤ 0.1 | ≤ 0.1 | 0.2 | 0.2 | 0.2 | 0.2 | 0.1 | 3.1 | 9000 to 10000 mg/kg | 9000 ng/mL | ≤ 0.1 |
| Cc1nnc(SCC2=C(C(=O)O)N3C(=O)C(NC(=O)Cn4cnnn4)C3SC2)s1 (stereo not drawn) [Comparative Compound (a), reference compound] | 0.4 | 1.6 | 0.2 | 0.8 | 1.6 | 3.1 | 3.1 | > 100 | 3.1 | 3.1 | 1.6 | > 100 | > 100 | > 100 | > 100 | > 100 | > 100 | – | – | 0.2 |
